# Laboratory results: patent US10233193B2, “Fused tricyclic heterocyclic compounds useful for treating HIV infection” (MERCK SHARP & DOHME CORP., priority 2015, dated 2019)
# Like-named read-outs stand apart in the source and are kept apart here.
# Tested on: HIV-1 (NL4-3 strain)
# Assay: Assay for inhibition of HIV replication (MT4-gag-GFP reporter cell line, wild type cell assay, Viking)
# Format: cell-based
# Conditions: IP or IC50 from 4-parameter dose response curve
# Protocol: This assay is a kinetic assay that employs a reporter cell line (MT4-gag-GFP) to quantify the number of new cells infected in each round of replication.
# MT4-GFP cells (250,000 cells/ml) were bulk-infected with HIV-1 (NL4-3 strain) at low multiplicity of infection (MOI) in RPMI+10% FBS for 24 hours. Cells were then washed once in RPMI+10% FBS and resuspended in RPMI+0% or 10% or 100% normal human serum (NHS). Test compounds were serial-diluted in DMSO on ECHO. The infected MT4-GFP cells were added to a 384-well poly-D-lysine coated black plate with clear bottom in which the diluted test compounds were placed. The cells were seeded at 8,000 cells per well and the final DMSO concentration was 0.4%. The infected cells (Green GFP cells) were quantified at both 24 and 48 hours post incubation using Acumen eX3. Viral reproductive ratio (R0) was determined using the number of infected cells at 48 hours divided by the number of infected cells at 24 hours. Percent viral growth inhibition was calculated by [1−(R−Rtripledrug)/(RDMSO−Rtripledrug)]*100. Compound potency IP or IC50 was determined by a 4-parameter dose response curve analysis.
# Illustrative compounds of the present invention were tested using this assay protocol and results are presented below in Table A.
smiles,measurement,setting,value
CN1CC[C@@H]2C1C(C)(C)C(=O)c1c(O)c(=O)c(C(=O)NCc3ccc(F)cc3F)cn12 (some centres unmarked) [Compound 9],IC50,"infected MT4-GFP cells in 100% normal human serum, read-out: WILD TYPE CELL ASSAY Viking IP (100% NHS)",0.174 µM
same,IC50,"infected MT4-GFP cells in RPMI + 0% normal human serum, read-out: WILD TYPE CELL ASSAY Viking IP (0% NHS)",0.0053 µM
